Laboratory results published in article PMC3914206.

How the values were obtained:
Format in all cases: binding
[1] = target: T1, panel of 442 kinases (Homo sapiens, UniProt Q08345); conditions: Compound Concentration 10 µM
T1 construct: purchased KINOMEscan
Description: (§1) We assessed the selectivity of members of this scaffold using the KINOMEscan methodology across a near comprehensive panel of 442 kinases [[18,27]].

[2] = target: T2, panel of 442 kinases (Homo sapiens, UniProt P48736); conditions: Compound Concentration 10 µM
T2 construct: purchased KINOMEscan
Description: as §1

[3] = target: T3, panel of 442 kinases (Homo sapiens, UniProt Q9UHD2); conditions: kinase TBK1; compound concentration 10 µM
T3 construct: purchased KINOMEscan
T3 sequence (Q9UHD2 1-729): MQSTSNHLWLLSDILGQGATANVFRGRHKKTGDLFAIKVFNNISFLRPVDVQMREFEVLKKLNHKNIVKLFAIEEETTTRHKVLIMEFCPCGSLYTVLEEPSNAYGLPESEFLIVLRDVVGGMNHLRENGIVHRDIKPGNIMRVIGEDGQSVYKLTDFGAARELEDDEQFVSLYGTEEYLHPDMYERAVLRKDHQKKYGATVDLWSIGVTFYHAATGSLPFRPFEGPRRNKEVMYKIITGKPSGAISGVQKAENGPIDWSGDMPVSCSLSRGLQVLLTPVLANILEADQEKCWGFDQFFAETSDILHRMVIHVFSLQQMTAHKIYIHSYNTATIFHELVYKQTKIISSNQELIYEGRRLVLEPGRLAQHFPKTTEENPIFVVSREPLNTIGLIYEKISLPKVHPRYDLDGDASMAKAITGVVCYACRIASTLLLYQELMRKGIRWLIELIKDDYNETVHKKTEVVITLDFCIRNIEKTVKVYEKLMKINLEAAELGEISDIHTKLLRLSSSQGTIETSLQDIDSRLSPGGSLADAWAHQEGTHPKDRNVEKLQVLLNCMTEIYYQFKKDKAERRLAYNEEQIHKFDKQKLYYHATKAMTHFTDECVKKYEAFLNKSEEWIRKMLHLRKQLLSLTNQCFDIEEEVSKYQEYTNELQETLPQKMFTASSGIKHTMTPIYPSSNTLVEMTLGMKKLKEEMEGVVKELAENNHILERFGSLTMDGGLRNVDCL
Description: as §1

T1 sequence (Q08345 19-913): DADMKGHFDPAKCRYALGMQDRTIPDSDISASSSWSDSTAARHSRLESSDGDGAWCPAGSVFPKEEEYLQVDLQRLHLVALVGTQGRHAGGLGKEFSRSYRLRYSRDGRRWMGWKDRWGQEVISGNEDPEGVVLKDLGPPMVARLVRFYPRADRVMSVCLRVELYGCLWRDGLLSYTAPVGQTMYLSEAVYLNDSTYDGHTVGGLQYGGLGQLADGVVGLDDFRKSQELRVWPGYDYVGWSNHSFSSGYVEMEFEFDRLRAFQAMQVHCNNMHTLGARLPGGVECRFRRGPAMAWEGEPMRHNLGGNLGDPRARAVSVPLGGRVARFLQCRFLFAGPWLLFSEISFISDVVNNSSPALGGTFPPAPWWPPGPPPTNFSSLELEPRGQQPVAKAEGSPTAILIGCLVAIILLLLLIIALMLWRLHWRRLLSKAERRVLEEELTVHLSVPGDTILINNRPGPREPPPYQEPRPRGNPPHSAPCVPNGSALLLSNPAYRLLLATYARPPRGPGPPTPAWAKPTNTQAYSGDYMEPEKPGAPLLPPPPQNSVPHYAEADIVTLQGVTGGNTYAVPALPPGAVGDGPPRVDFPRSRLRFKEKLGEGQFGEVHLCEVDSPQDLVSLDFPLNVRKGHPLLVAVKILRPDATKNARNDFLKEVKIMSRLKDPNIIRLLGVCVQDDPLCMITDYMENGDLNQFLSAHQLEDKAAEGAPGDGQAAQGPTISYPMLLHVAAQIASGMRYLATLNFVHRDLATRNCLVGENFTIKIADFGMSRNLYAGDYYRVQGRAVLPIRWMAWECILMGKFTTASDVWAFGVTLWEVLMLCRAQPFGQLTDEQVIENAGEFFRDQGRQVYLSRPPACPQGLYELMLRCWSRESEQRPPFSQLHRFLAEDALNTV
T2 sequence (P48736 whole entry): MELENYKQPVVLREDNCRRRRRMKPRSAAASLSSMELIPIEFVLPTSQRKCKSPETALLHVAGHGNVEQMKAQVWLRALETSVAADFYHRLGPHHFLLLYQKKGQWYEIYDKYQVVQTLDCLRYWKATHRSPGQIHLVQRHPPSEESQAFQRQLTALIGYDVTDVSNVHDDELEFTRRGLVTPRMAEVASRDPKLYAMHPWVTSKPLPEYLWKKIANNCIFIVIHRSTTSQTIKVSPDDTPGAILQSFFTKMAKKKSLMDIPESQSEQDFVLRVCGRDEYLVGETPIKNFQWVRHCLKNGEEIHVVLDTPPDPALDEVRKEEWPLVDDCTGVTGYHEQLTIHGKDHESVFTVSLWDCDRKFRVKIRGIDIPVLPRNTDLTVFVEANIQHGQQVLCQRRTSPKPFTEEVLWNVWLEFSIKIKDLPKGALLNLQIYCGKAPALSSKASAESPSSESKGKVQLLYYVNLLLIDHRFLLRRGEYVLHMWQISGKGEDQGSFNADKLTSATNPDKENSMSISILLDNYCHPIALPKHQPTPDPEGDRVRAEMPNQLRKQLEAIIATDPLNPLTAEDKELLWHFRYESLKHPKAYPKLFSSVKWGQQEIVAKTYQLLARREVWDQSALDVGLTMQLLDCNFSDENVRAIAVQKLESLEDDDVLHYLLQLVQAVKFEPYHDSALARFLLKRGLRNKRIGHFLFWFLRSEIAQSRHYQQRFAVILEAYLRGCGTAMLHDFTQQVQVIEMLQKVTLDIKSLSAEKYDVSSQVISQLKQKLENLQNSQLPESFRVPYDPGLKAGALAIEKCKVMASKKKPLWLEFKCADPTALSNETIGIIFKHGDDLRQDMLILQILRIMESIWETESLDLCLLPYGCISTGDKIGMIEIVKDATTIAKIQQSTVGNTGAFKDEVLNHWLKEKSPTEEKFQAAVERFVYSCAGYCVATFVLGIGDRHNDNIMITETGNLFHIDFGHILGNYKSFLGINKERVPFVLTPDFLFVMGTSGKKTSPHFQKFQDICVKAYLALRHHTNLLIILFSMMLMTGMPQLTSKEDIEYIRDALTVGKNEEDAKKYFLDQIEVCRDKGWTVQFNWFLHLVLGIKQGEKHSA

## COc1cc(C(=O)N2CCC(N3CCN(C)CC3)CC2)ccc1Nc1ncc2c(n1)N(C1CCCC1)c1ccccc1C(=O)N2C [Compound 25, 11-cyclopentyl-2-((2-methoxy-4-(4-(4-methylpiperazin-1-yl)piperidine-1-carbonyl)phenyl)amino)-5-methyl-5H-benzo[e]pyrimido[5,4-b][1,4]diazepin-6(11H)-one]
[1]
  KINOMEscan: DDR1: 98
[2]
  KINOMEscan: PIK3CG: 80
[3]
  % Ctrl, TBK1: 100 % Ctrl

## CCOc1cc(C(=O)N2CCC(N3CCN(C)CC3)CC2)ccc1Nc1ncc2c(n1)N(C1CCCC1)c1ccccc1C(=O)N2C [Compound 26]
[1]
  KINOMEscan: DDR1: 100
[2]
  KINOMEscan: PIK3CG: 82
[3]
  % Ctrl, TBK1: 100 % Ctrl

## COc1cc(C(=O)N2CCC(N3CCN(C)CC3)CC2)ccc1Nc1ncc2c(n1)N1CCc3cccc(c31)C(=O)N2C [Compound 24]
[1]
  KINOMEscan: DDR1: 67
[2]
  KINOMEscan: PIK3CG: 30
[3]
  % Ctrl, TBK1: 98 % Ctrl

## COc1cc(C(=O)N2CCC(N3CCN(C)CC3)CC2)ccc1Nc1ncc2c(n1)N(C)c1ccccc1C(=O)N2C [15 (LRRK2-IN-1)]
[1]
  KINOMEscan: DDR1: 100
[2]
  KINOMEscan: PIK3CG: 15
[3]
  % Ctrl, TBK1: 97 % Ctrl
